Here are results for 31 compounds from patent US6582351B1, “Imidazopyridinone derivatives and their use as phosphodiesterase inhibitors” (Fujisawa Pharmaceutical Co., Ltd., priority 1999, dated 2003).

The structures appear in SMILES notation.

As to `COc1ccc(Cn2c(=O)n([C@H]3CC[C@H](O)CC3)c3ccc(C(F)(F)F)cc32)cc1OC` [Example 1, 3-(3,4-dimethoxybenzyl)-1-(trans-4-hydroxycyclohexyl)-5-trifluoromethyl-2,3-dihydro-1H-benzimidazol-2-one], the melting point lay in the range of 108 to 110 °C. For the compound `COc1cc(Cn2c(=O)n(C3CCCC3)c3ccc([N+](=O)[O-])cc32)ccc1Cl` [Example 2(2), 3-(4-Chloro-3-methoxybenzyl)-1-cyclopentyl-5-nitro-2,3-dihydro-1H-benzimidazol-2-one], the melting point lay within 170 to 171.5 °C.

In turn, `COc1ccc(Cn2c(=O)n([C@H]3CC[C@H](O)CC3)c3ccc([N+](=O)[O-])cc32)cc1OC` [Example 2(3), 3-(3,4-Dimethoxybenzyl)-1-(trans-4-hydroxycyclohexyl)-5-nitro-2,3-dihydro-1H-benzimidazol-2-one] displayed a melting point of 175 to 176 °C. Then `COc1ccc(Cn2c(=O)n([C@H]3CC[C@H](O)CC3)c3ccc(C#N)cc32)cc1OC` [Example 2(5), 5-Cyano-3-(3,4-dimethoxybenzyl)-1-(trans-4-hydroxycyclohexyl)-2,3-dihydro-1H-benzimidazol-2-one], with 209 to 210 °C. Then `COc1ccc(Cn2c(=O)n([C@H]3CC[C@H](O)CC3)c3ccc(C(C)=O)cc32)cc1OC` [Example 2(7), 5-Acetyl-3-(3,4-dimethoxybenzyl)-1-(trans-4-hydroxycyclohexyl)-2,3-dihydro-1H-benzimidazol-2-one], with 169 to 170 °C; and `COc1ccc(Cn2c(=O)n([C@H]3CC[C@H](NC=O)CC3)c3ccc(C(F)(F)F)cc32)cc1OC` [Example 2(8), 3-(3,4-Dimethoxybenzyl)-1-(trans-4-formamidocyclohexyl)-5-trifluoromethyl-2,3-dihydro-1H-benzimidazol-2-one], with 158 to 160.5 °C. With `COc1ccc(Cn2c(=O)n([C@H]3CC[C@H](O)CC3)c3ccc(Cl)cc32)cc1OC` [Example 2(9), 5-Chloro-3-(3,4-dimethoxybenzyl)-1-(trans-4-hydroxycyclohexyl)-2,3-dihydro-1H-benzimidazol-2-one] the figure was 166 to 167 °C; with `COC(=O)c1ccc2c(c1)n(Cc1ccc(OC)c(OC)c1)c(=O)n2[C@H]1CC[C@H](O)CC1` [Example 2(10), 3-(3,4-Dimethoxybenzyl)-1-(trans-4-hydroxycyclohexyl)-5-methoxycarbonyl-2,3-dihydro-1H-benzimidazol-2-one], 148 to 149.5 °C.

Compound `COc1ccc2c(c1)n(Cc1ccc(OC)c(OC)c1)c(=O)n2[C@H]1CC[C@H](O)CC1` [Example 2(11), 3-(3,4-Dimethoxybenzyl)-1-(trans-4-hydroxycyclohexyl)-5-methoxy-2,3-dihydro-1H-benzimidazol-2-one] showed a melting point of 176 to 177 °C. With `COc1ccc(Cn2c(=O)n([C@H]3CC[C@H](OC(C)=O)CC3)c3ncc(C(F)(F)F)cc32)cc1OC` [Example 2(12), 3-(trans-4-Acetoxycyclohexyl)-1-(3,4-dimethoxybenzyl)-6-trifluoromethyl-2,3-dihydro-1H-imidazo[4,5-b]pyridin-2-one] the figure was 130 to 133 °C; with `COc1ccc(Cn2c(=O)n(C3CCCC3)c3ncc(C(F)(F)F)cc32)cc1OC` [Example 2(13), 3-Cyclopentyl-1-(3,4-dimethoxybenzyl)-6-trifluoromethyl-2,3-dihydro-1H-imidazo[4,5-b]pyridin-2-one], 115 to 116 °C; with `COc1ccc(Cn2c(=O)n([C@H]3CC[C@H](OC(C)=O)CC3)c3ncc(C(F)(F)F)cc32)cc1Cl` [Example 2(15), 3-(trans-4-Acetoxycyclohexyl)-1-(3-chloro-4-methoxybenzyl)-6-trifluoromethyl-2,3-dihydro-1H-imidazo[4,5-b]pyridin-2-one], 165 to 166 °C. Then `COc1ccc(Cn2c(=O)n([C@H]3CC[C@H](O)CC3)c3ccc([N+](=O)[O-])cc32)cc1Cl` [Example 2(16), 3-(3-Chloro-4-methoxybenzyl)-1-(trans-4-hydroxycyclohexyl)-5-nitro-2,3-dihydro-1H-benzimidazol-2-one], with 142 to 142.5 °C. With `COc1ccc(Cn2c(=O)n(C3CCCC3)c3ncc(C(F)(F)F)cc32)cc1Cl` [Example 2(17), 1-(3-Chloro-4-methoxybenzyl)-3-cyclopentyl-6-trifluoromethyl-2,3-dihydro-1H-imidazo[4,5-b]pyridin-2-one] the figure was 156 to 157 °C; with `COc1ccc(Cn2c(=O)n([C@H]3CCN(C(=O)OC(C)(C)C)C3)c3ccc(C(F)(F)F)cc32)cc1OC` [Example 2(18), 1-((S)-1-tert-Butoxycarbonylpyrrolidin-3-yl)-3-(3,4-dimethoxybenzyl)-5-trifluoromethyl-2,3-dihydro-1H-benzimidazol-2-one], 122 to 122.5 °C. `COc1ccc(Cn2c(=O)n([C@H]3CCN(C(=O)OC(C)(C)C)C3)c3ccc(C(F)(F)F)cc32)cc1Cl` [Example 2(19), 1-((S)-1-tert-Butoxycarbonylpyrrolidin-3-yl)-3-(3-chloro-4-methoxybenzyl)-5-trifluoromethyl-2,3-dihydro-1H-benzimidazol-2-one] came in with a melting point of 157 to 157.5 °C.

Take `COc1ccc(Cn2c(=O)n(-c3ccc4[nH]cnc4c3)c3ccc(C(F)(F)F)cc32)cc1OC` [Example 2(20), 1-(1H-Benzimidazol-5-yl)-3-(3,4-dimethoxybenzyl)-5-trifluoromethyl-2,3-dihydro-1H-benzimidazol-2-one]: the melting point was 174 to 175 °C.

`COc1ccc(Cn2c(=O)n([C@H]3CC[C@H](O)CC3)c3ccc(C(C)=O)cc32)cc1Cl` [Example 2(22), 5-Acetyl-3-(3-chloro-4-methoxybenzyl)-1-(trans-4-hydroxycyclohexyl)-2,3-dihydro-1H-benzimidazol-2-one] yielded a melting point of 209 to 210 °C. With `COc1ccc(Cn2c(=O)n([C@H]3CC[C@H](O)CC3)c3ccc(C(F)(F)F)cc32)cc1Cl` [Example 2(24), 3-(3-Chloro-4-methoxybenzyl)-1-(trans-4-hydroxycyclohexyl)-5-trifluoromethyl-2,3-dihydro-1H-benzimidazol-2-one] the figure was 167 to 168 °C; with `COc1c(Cl)cc(Cn2c(=O)n([C@H]3CC[C@H](O)CC3)c3ccc([N+](=O)[O-])cc32)cc1Cl` [Example 2(26), 3-(3,5-Dichloro-4-methoxybenzyl)-1-(trans-4-hydroxycyclohexyl)-5-nitro-2,3-dihydro-1H-benzimidazol-2-one], 115 to 116 °C. With `COC(=O)c1ccc2c(c1)n(Cc1ccc(OC)c(Cl)c1)c(=O)n2[C@H]1CC[C@H](O)CC1` [Example 2(27), 3-(3-Chloro-4-methoxybenzyl)-1-(trans-4-hydroxycyclohexyl)-5-methoxycarbonyl-2,3-dihydro-1H-benzimidazol-2-one] the figure was 174 to 175 °C. With `CCOc1ccc(Cn2c(=O)n([C@H]3CC[C@H](O)CC3)c3ccc(C(F)(F)F)cc32)cc1Cl` [Example 2(29), 3-(3-Chloro-4-ethoxybenzyl)-1-(trans-4-hydroxycyclohexyl)-5-trifluoromethyl-2,3-dihydro-1H-benzimidazol-2-one] the figure was 147.5 to 149 °C; with `COc1ccc(Cn2c(=O)n([C@H]3CC[C@H](O)CC3)c3ccc(C(F)(F)F)cc32)cc1F` [Example 2(30), 3-(3-Fluoro-4-methoxybenzyl)-1-(trans-4-hydroxycyclohexyl)-5-trifluoromethyl-2,3-dihydro-1H-benzimidazol-2-one], 178 to 179 °C.

As to `COc1ccc(Cn2c(=O)n([C@H]3CC[C@H](O)CC3)c3ccc(C(F)(F)F)cc32)cc1Br` [Example 2(31), 3-(3-Bromo-4-methoxybenzyl)-1-(trans-4-hydroxycyclohexyl)-5-trifluoromethyl-2,3-dihydro-1H-benzimidazol-2-one], the melting point was in the range of 182 to 182.5 °C. Then `COc1ccc(Cn2c(=O)n(C(C)(C)C)c3ccc(C(F)(F)F)cc32)cc1Cl` [Example 2(32), 1-(tert-Butyl)-3-(3-chloro-4-methoxybenzyl)-5-trifluoromethyl-2,3-dihydro-1H-benzimidazol-2-one], with 130.5 to 131.5 °C; and `COc1ccc(Cn2c(=O)n(C3CCOCC3)c3ccc(C(F)(F)F)cc32)cc1Cl` [Example 2(34), 3-(3-Chloro-4-methoxybenzyl)-1-(tetrahydro-4H-pyran-4-yl)-5-trifluoromethyl-2,3-dihydro-1H-benzimidazol-2-one], with 175 to 176 °C; and `COc1ccc(Cn2c(=O)n(C(C)C)c3ccc(C(F)(F)F)cc32)cc1Cl` [Example 2(35), 3-(3-Chloro-4-methoxybenzyl)-1-isopropyl-5-trifluoromethyl-2,3-dihydro-1H-benzimidazol-2-one], with 153.5 to 155 °C. Then `CCCCn1c(=O)n(Cc2ccc(OC)c(Cl)c2)c2cc(C(F)(F)F)ccc21` [Example 2(36), 1-Butyl-3-(3-chloro-4-methoxybenzyl)-5-trifluoromethyl-2,3-dihydro-1H-benzimidazol-2-one], with 122 to 124 °C.

Consider `COc1ccc(Cn2c(=O)n(C3CCCCC3)c3ccc(C(F)(F)F)cc32)cc1Cl` [Example 2(37), 1-Cyclohexyl-3-(3-chloro-4-methoxybenzyl)-5-trifluoromethyl-2,3-dihydro-1H-benzimidazol-2-one], for which the melting point fell in the range of 160 to 161 °C. Then `COc1ccc(Cn2c(=O)n([C@H]3CC[C@H](O)CC3)c3ccc([N+](=O)[O-])cc32)cc1C#N` [Example 2(97), 3-(3-Cyano-4-methoxybenzyl)-1-(trans-4-hydroxycyclohexyl)-5-nitro-2,3-dihydro-1H-benzimidazol-2-one], with 122 to 124 °C. Then `COC(=O)c1cnc2c(c1)n(Cc1ccc(OC)c(Cl)c1)c(=O)n2[C@H]1CC[C@H](O)CC1` [Example 2(98), 1-(3-Chloro-4-methoxybenzyl)-3-(trans-4-hydroxycyclohexyl)-6-methoxycarbonyl-2,3-dihydro-1H-imidazo[4,5-b]pyridin-2-one], with 146 to 148 °C.

One may read the melting point as the temperature of the solid-liquid transition.
